Test results taken from patent US8257931B2 (President and Fellows of Harvard College, priority 2005, dated 2012).
“And” between values parts separate entries of the source, which are not always exact repeats. Equal values may be shown once. Read-outs that look alike come from different tables or passages of the source.

Key:
A549 lung cancer cells = experiment: A549 proliferation, sulforhodamine B (SRB) assay; assay type: cell-based, human; details: sulforhodamine B assay, triplicate
Description: FIG. 28 is a graph showing the results of a cell proliferation assay. A549 cells, which are human lung cancer cells, are grown in plates for five days in medium containing 5% FCS and compound. The number of cells is quantified by staining with sulforhodamine B.

eIF4E/eIF4G interaction = target: T1, eIF4E/eIF4G interaction (Mus musculus, UniProt P63073); experiment: Fluorescence polarization assay: binding of fluorescein-labeled eIF4G peptide to eIF4E; set-up: species or system murine; details: triplicate, SD<±10%; for IC50: read-out: IC50 (μM) (4E/4G FP)
T1 construct: made in house; host or cells: E. coli
T1 sequence (P63073 whole entry): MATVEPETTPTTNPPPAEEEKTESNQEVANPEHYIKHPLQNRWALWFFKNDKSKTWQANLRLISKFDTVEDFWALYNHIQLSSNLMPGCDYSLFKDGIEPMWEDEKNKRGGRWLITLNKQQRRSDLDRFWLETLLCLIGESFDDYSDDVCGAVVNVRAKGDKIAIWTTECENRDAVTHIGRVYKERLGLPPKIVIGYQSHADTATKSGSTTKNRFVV
Description: We adapted this assay to a microwell plate format and used it to screen the 16,000 compound Chembridge DiverSet E library. […] For screening and subsequent peptide binding assays measurements of fluorescence polarization were made using an LJL Analyst plate reader. For the screening assay a solution containing approximately 5 μM meIF4E, 60 nM labeled peptide, 0.05% bovine γ-globulin, and 2 mM DTT in a buffer composed of 50 mM sodium phosphate and 50 mM potassium chloride at pH 6.5 was used. […] The curve fitting for estimation of binding constants used equations derived by Roehrl et al.^22 Measurements of fluorescence polarization and anisotropy were made in black 384-well plates (Corning) using an Analyst plate reader (LJL Biosystems) Compounds were transferred to plates during the screening using a custom-built Seiko pin transfer robot at the Institute for Chemistry and Cell Biology (ICCB) at Harvard Medical School.
A fluorescence polarization (FP) assay was developed to measure binding of a peptide containing the conserved eIF4E-binding motif to eIF4E.
The assay was adapted to a microwell plate format and used to screen a number of libraries comprised of small molecule libraries for potential eIF4E/eIF4G interaction inhibitors.

[1] = Homo sapiens, A549, Table 1 of b280
[2] = Homo sapiens, A549, Table 1 of b347

Row | Structure (SMILES) | IC50 (eIF4E/eIF4G interaction; Table 1 of b280) | IC50 (eIF4E/eIF4G interaction; Table 1 of b347) | GI50 (A549 lung cancer cells; [1]) | GI50 (A549 lung cancer cells; [2]) | other results
1 | Cc1sc(N/N=C(\Cc2ccccc2)C(=O)O)nc1-c1ccccc1 [E-9, 2-[(5-Methyl-4-phenyl-thiazol-2-yl)-hydrazono]-3-phenyl-propionic acid] | 350 µM | > 300 µM |  |  | GI50 (A549 lung cancer cells; Table 1): 6 µM; GI50 (A549 lung cancer cells; Table 1, listed as E-4n): 6 µM
2 | O=C(O)C(Cc1ccccc1)NCc1nc(-c2ccccc2)cs1 (stereo not shown) [drawing 71] |  |  |  |  | IC50 (μM) (4E/4G FP) (eIF4E/eIF4G interaction; Table 1 of b280): insoluble
3 | COC(=O)/C(Cc1ccccc1)=N/Nc1nc(-c2ccccc2)cs1 [E-13, 3-Phenyl-2-[(4-phenyl-thiazol-2-yl)-hydrazono]-propionic acid methyl ester] |  |  |  |  | GI50 (A549 lung cancer cells; Table 1): 7 µM; GI50 (A549 lung cancer cells; Table 1, listed as E-4f): 7 µM
4 | O=C(O)C(Cc1ccccc1[N+](=O)[O-])=NNc1nc(-c2ccc(/N=N/c3ccccc3)cc2)cs1 (mixture of isomers) | 150 µM |  | 4 µM |  | 
5 | O=C(O)/C(Cc1ccccc1[N+](=O)[O-])=N/Nc1nc(-c2ccc3ccccc3c2)cs1 | 215 µM |  | 6 µM |  | 
6 | O=[N+]([O-])c1ccccc1CC(CO)NNc1nc(-c2ccc(Cl)c(Cl)c2)cs1 (stereo not shown) [compound 14, 2-{N′-[4-(3,4-Dichloro-phenyl)-thiazol-2-yl]-hydrazino}-3-(2-nitro-phenyl)-propan-1-ol] |  | > 600 µM |  | 4 µM | 
7 | O=C(O)C(Cc1ccccc1)=NNc1nnc(-c2ccccc2)s1 [E-16, 3-Phenyl-2-[(5-phenyl-[1,3,4]thiadiazol-2-yl)-hydrazono]-propionic acid] |  | > 600 µM |  | 9 µM | 
8 | O=C(O)/C(Cc1ccccc1)=N/Nc1nc(-c2ccccc2)cs1 [E-4, 3-Phenyl-2-[(4-phenyl-thiazol-2-yl)-hydrazono]-propionic acid] | > 600 µM | > 600 µM |  |  | GI50 (A549 lung cancer cells; Table 1): 14 µM and 17 µM; GI50 (A549 lung cancer cells; Table 1, listed as E-4c): 16 µM
9 | O=C(O)C(Cc1ccccc1)C(=O)Nc1nc(-c2ccccc2)cs1 (stereo not shown) [drawing 70] | > 600 µM |  |  |  | 
10 | O=C(O)/C(=N/Nc1nc(-c2ccccc2)cs1)c1ccccc1 [E-6, Phenyl-[(4-phenyl-thiazol-2-yl)-hydrazono]-acetic acid] |  |  |  |  | GI50 (A549 lung cancer cells; Table 1): 10 µM; GI50 (A549 lung cancer cells; Table 1, listed as E-4h): 10 µM
11 | O=C(O)/C(Cc1ccccc1[N+](=O)[O-])=N/Nc1nc(-c2ccccc2)cs1 [E-2] |  |  |  |  | GI50 (A549 lung cancer cells; Table 1): 7 µM; GI50 (A549 lung cancer cells; Table 1, listed as E-4r): 7 µM
12 | O=C(O)/C(Cc1ccccc1[N+](=O)[O-])=N/Nc1nc(-c2ccc(N3CCCC3)cc2)cs1 | > 600 µM |  | > 20 µM |  | 
13 | O=C(O)/C(=C\c1ccccc1)NCc1nc(-c2ccccc2)cs1 | > 600 µM |  |  |  | 
14 | O=C(O)/C(Cc1ccccc1)=N/Nc1nc(-c2ccc3c(c2)OCCCO3)cs1 | 400 µM |  |  |  | 
15 | O=C(NC(Cc1ccccc1)C(=O)O)c1nc(-c2ccccc2)cs1 (stereo not shown) [drawing 69] | > 600 µM |  |  |  | 
16 | O=C(NC(Cc1ccccc1)C(=O)O)c1nc(-c2ccccc2)cs1 (stereo not shown) [compound 18, 3-Phenyl-2-[(4-phenyl-thiazole-2-carbonyl)-amino]-propionic acid] |  | > 600 µM |  |  | 
17 | O=C(O)C(CNc1nc(-c2ccccc2)cs1)Cc1ccccc1 (stereo not shown) [compound 22, 2-Benzyl-3-(4-phenyl-thiazol-2-ylamino)-propionic acid] |  | > 600 µM |  |  | 
18 | O=C(O)/C(Cc1ccccc1)=N/NC(=S)NCc1ccccc1 [compound 8] | 550 µM | 550 µM | > 10 µM | > 10 µM | 
19 | O=C(O)/C(Cc1ccccc1)=N/Nc1ccc(-c2ccccc2)nn1 [E-17, 3-Phenyl-2-[(6-phenyl-pyridazin-3-yl)-hydrazono]-propionic acid] |  | > 600 µM |  | 7.5 µM | 
20 | O=C(Cc1ccccc1)NNc1nc(-c2ccccc2)cs1 [compound 12] |  | > 600 µM |  | > 20 µM | 
21 | O=C(O)/C(Cc1ccccc1)=N/Nc1nc(-c2ccc(Cl)c(Cl)c2)cs1 [E-3, 2-{[4-(3,4-Dichloro-phenyl)thiazol-2-yl]-hydrazono}-3-phenyl-propionic acid] | 355 µM | 355 µM |  |  | GI50 (A549 lung cancer cells; Table 1): 6.5 µM; GI50 (A549 lung cancer cells; Table 1, listed as E-4s): 6.5 µM
22 | NC(=O)/C(Cc1ccccc1)=N/Nc1nc(-c2ccccc2)cs1 [E-21, 3-Phenyl-2-[(4-phenyl-thiazol-2-yl)-hydrazono]-propionamide] |  | > 600 µM |  |  | 
23 | O=C(O)/C(Cc1ccccc1)=N/Nc1nc(-c2ccc(N3CCOCC3)cc2)cs1 | > 125 µM |  |  |  | 
24 | O=C(O)C(Cc1ccccc1)NCc1nc(-c2ccccc2)cs1 (stereo not shown) [compound 20, 3-Phenyl-2-[(4-phenyl-thiazol-2-ylmethyl)-amino]-propionic acid] |  |  |  |  | IC50 (μM) (4E/4G FP) (eIF4E/eIF4G interaction; Table 1 of b347): insoluble
25 | O=C(O)C(Cc1ccccc1)=NNc1nc(-c2ccc(C3CCCCC3)cc2)cs1 (mixture of isomers) | 100 µM |  |  |  | 
26 | O=C(O)/C(Cc1ccccc1[N+](=O)[O-])=N/Nc1nc(-c2ccc(-c3ccccc3)cc2)cs1 |  |  | 4 µM |  | 
27 | O=C(O)/C(Cc1ccccc1[N+](=O)[O-])=N/Nc1nc(-c2ccc(Cl)c(Cl)c2)cs1 [E-1, 2-{[4-(3,4-Dichloro-phenyl)-thiazol-2-yl]-hydrazono}-3-(2-nitro-phenyl)-propionic acid] |  |  |  |  | GI50 (A549 lung cancer cells; Table 1): 3 µM; GI50 (A549 lung cancer cells; Table 1, listed as E-4a): 3 µM
28 | O=C(O)C(Cc1ccccc1)C(=O)Nc1nc(-c2ccccc2)cs1 (stereo not shown) [compound 19, 2-Benzyl-N-(4-phenyl-thiazol-2-yl)-malonamic acid] |  | > 600 µM |  |  | 
29 | O=C(O)/C(Cc1ccccc1)=N/Nc1nc2ccccc2s1 [E-11, 2-(Benzothiazol-2-yl-hydrazono)-3-phenyl-propionic acid] |  |  |  |  | GI50 (A549 lung cancer cells; Table 1): 4 µM; GI50 (A549 lung cancer cells; Table 1, listed as E-4p): 4 µM
30 | O=C(O)C(Cc1ccccc1)=NNc1nc(-c2ccc3c(c2)OCCO3)cs1 (mixture of isomers) | 170 µM |  |  |  | 

More lines, main results first:

Row | IC50 (eIF4E/eIF4G interaction; Table 1 of b280) | IC50 (eIF4E/eIF4G interaction; Table 1 of b347) | GI50 (A549 lung cancer cells; [1]) | GI50 (A549 lung cancer cells; [2]) | Structure (SMILES) | other results
31 | 240 µM | 240 µM | 17 µM | > 20 µM | O=C(O)/C(Cc1ccccc1)=N/Nc1nc(-c2ccccc2)cs1 [Z-4, 3-Phenyl-2-[(4-phenyl-thiazol-2-yl)-hydrazono]-propionic acid] | 
32 |  |  | 6 µM | 5 ± 1 µM | O=C(O)/C(Cc1ccccc1[N+](=O)[O-])=N/Nc1nc(-c2ccc(Cl)c(Cl)c2)cs1 [Z-1, 2-{[4-(3,4-Dichloro-phenyl)-thiazol-2-yl]-hydrazono}-3-(2-nitro-phenyl)-propionic acid] | 
33 | 300 µM |  |  |  | O=C(O)/C(Cc1ccccc1)=N/Nc1nc(-c2ccc(Cl)c(Cl)c2)cs1 [Z-3, 2-{[4-(3,4-Dichloro-phenyl)thiazol-2-yl]-hydrazono}-3-phenyl-propionic acid] | GI50 (A549 lung cancer cells; Table 1): 14 µM; GI50 (A549 lung cancer cells; Table 1, listed as Z-4s): 14 µM
34 | > 600 µM | > 600 µM | 7 µM | 7 µM | C(/Cc1ccccc1)=N/Nc1nc(-c2ccccc2)cs1 [Z-5, N-Phenethylidene-N′-(4-phenyl-thiazol-2-yl)-hydrazine] | 
35 | > 600 µM | > 600 µM | > 10 µM | > 10 µM | O=C(O)/C(Cc1ccccc1)=N\Nc1nnc(-c2ccccc2)s1 [Z-16, 3-Phenyl-2-[(5-phenyl-[1,3,4]thiadiazol-2-yl)-hydrazono]-propionic acid] | 
36 | > 600 µM | > 600 µM | 11 µM | 11 µM | COC(=O)/C(Cc1ccccc1)=N/Nc1nc(-c2ccccc2)cs1 [Z-13, 3-Phenyl-2-[(4-phenyl-thiazol-2-yl)-hydrazono]-propionic acid methyl ester] | 
37 | > 600 µM | > 600 µM | 14 µM | 14 µM | OC/C(Cc1ccccc1)=N/Nc1nc(-c2ccccc2)cs1 [Z-15, 3-Phenyl-2-[(4-phenyl-thiazol-2-yl)-hydrazono]-propan-1-ol] | 
38 | > 600 µM |  | > 10 µM |  | O=C(O)/C(Cc1ccccc1)=N/Nc1ccc(-c2ccccc2)nn1 [Z-17, 3-Phenyl-2-[(6-phenyl-pyridazin-3-yl)-hydrazono]-propionic acid] | 
39 | > 600 µM | > 600 µM |  |  | O=C(O)/C(Cc1ccccc1)=N/Nc1nc2ccccc2s1 [Z-11, 2-(Benzothiazol-2-yl-hydrazono)-3-phenyl-propionic acid] | GI50 (A549 lung cancer cells; Table 1): > 20 µM; GI50 (A549 lung cancer cells; Table 1, listed as Z-4p): > 20 µM
40 | > 600 µM | > 600 µM | > 20 µM | > 20 µM | C/C(=N\Nc1nc(-c2ccccc2)cs1)C(=O)O [Z-7, 2-[(4-Phenyl-thiazol-2-yl)-hydrazono]-propionic acid] | 
41 | 240 µM | 240 µM | 4 µM | 4 µM | Cc1sc(N/N=C(\Cc2ccccc2)C(=O)O)nc1-c1ccccc1 [Z-9, 2-[(5-Methyl-4-phenyl-thiazol-2-yl)-hydrazono]-3-phenyl-propionic acid] | 
42 | > 600 µM | > 600 µM | 13 µM | 13 µM | O=C(O)/C(=N/Nc1nc(-c2ccccc2)cs1)c1ccccc1 [Z-6, Phenyl-[(4-phenyl-thiazol-2-yl)-hydrazono]-acetic acid] | 
